Assay results as given in patent publication US9820989B2, “Method of treating conditions with kinase inhibitors” (Allergan, Inc., priority 2012, dated 2017).

Target: PDGFRβ kinase (Homo sapiens (Human), UniProt P09619)
Experiment: PDGFRβ Kinase Assay (biochemical, poly-Glu-Tyr ELISA)
Settings: purified cytoplasmic domain PDGFR-b protein, 36 μM ATP
Procedure: Biochemical PDGFRβ kinase assays were performed in 96 well microliter plates that were coated overnight with 75 μg of poly-Glu-Tyr (4:1) in 10 mM Phosphate Buffered Saline (PBS), pH 7.4. The coated plates were washed with 2 mls per well PBS+0.05% Tween-20 (PBS-T), blocked by incubation with PBS containing 1% BSA, then washed with 2 mls per well PBS-T prior to starting the reaction. Reactions were carried out in 100 μL reaction volumes containing 36 μM ATP in kinase buffer (50 mM Hepes buffer pH 7.4, 20 mM MgCl2, 0.1 mM MnCl2 and 0.2 mM Na3VO4). Test compounds were reconstituted in 100% DMSO and added to the reaction to give a final DMSO concentration of 5%. Reactions were initiated by the addition 20 ul per well of kinase buffer containing 200-300 ng purified cytoplasmic domain PDGFR-b protein (Millipore). […] The reaction was terminated by the addition of 100 μl of 2.5N H2SO4 to each well and read using a microplate ELISA reader set at 492 nm. IC50 values for compound inhibition were calculated directly from graphs of optical density (arbitrary units) versus compound concentration following subtraction of blank values.
IC50 values for test compounds were calculated from % inhibition of PDGF-BB stimulated responses in the absence of inhibitor.

Sequence of PDGFRβ kinase (P09619 554-1106): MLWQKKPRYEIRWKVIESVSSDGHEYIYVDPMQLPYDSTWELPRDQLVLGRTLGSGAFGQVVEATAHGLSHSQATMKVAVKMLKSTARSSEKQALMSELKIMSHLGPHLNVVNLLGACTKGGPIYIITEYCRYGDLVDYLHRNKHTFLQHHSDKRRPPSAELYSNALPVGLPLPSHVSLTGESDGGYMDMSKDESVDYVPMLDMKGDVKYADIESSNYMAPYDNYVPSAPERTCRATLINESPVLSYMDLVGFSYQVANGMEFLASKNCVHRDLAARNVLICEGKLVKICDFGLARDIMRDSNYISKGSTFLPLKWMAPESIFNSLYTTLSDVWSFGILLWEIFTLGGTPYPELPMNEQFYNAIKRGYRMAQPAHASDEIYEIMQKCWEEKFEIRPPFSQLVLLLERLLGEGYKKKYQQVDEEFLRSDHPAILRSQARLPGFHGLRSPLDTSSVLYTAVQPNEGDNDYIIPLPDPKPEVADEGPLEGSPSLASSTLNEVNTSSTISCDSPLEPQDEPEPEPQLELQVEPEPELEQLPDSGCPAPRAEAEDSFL

IC50: > 10 µM
Compound: CC(C)c1ccc(NC(=O)c2cc(N3Cc4cnc(N)nc4C3)ccn2)cc1 [Example 83, 4-(2-amino-5,7-dihydro-6H-pyrrolo[3,4-d]pyrimidin-6-yl)-N-(4-isopropylphenyl)pyridine-2-carboxamide]
